Test results from US20220227765A1, “PYRIDO-INDOLE ANALOGUES AS GPX4 INHIBITORS” (Ferro Therapeutics, Inc., priority 2019, published 2022).
Converted amounts (≈) assume the structure as drawn. Where two headings read alike, the source gives them in different places.

What was measured:
786-O = assay: Cell proliferation (Alamar Blue) assay, 786-O; type: cell-based, human; details: Homo sapiens, 786-0, 24 h, Table B-3, 786-O cells
Outline: (§1)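 Alamar Blue fluorescence (540 nm excitation, 590 nm emission, 1.5 h reagent incubation) measured viability after 24 h compound exposure at 37° C./5% CO2. Compounds spanned 10-0.0005 μM in 3-fold steps with 1% final DMSO, on cells pre-seeded 16-24 h at 5000/well. IC50 values were derived by variable-slope dose-response fitting.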

[1] = Mouse plasma protein % unbound (ultracentrifuge method); type: in vitro ADME; details: for Mouse Plasma Protein % Unbound (Ultracentrifuge method, 4 h at 37° C.): Table B-6; for fraction unbound at 4 h: mouse, plasma, Table B-6, 4 h at 37° C.
SJSA-1 = assay: Cell proliferation (Alamar Blue) assay, SJSA-1; type: cell-based, human; details: Homo sapiens, SJSA-1, 24 h, Table B-3, head prints SJSB-1, 24 h, read-out: IC50 (μM) SJSB-1
Outline: as §1

A431 = assay: Cell proliferation (Alamar Blue) assay, A431; type: cell-based, human; details: Homo sapiens, A-431, 24 h, Table B-3, A431 cells
Outline: as §1

[2] = CD-1 Mouse Whole Blood Stability Assay; type: in vitro ADME; details: Table B-6, incubation at 37° C.
[3] = Kinetic solubility (PBS, pH 7.4); type: physicochemical; details: aqueous buffer, kinetic from dmso stock
Human blood stability = type: in vitro ADME
[4] = Rat IV pharmacokinetics (2 mg/kg); type: in vivo; details: male, SD, plasma, read-out: Rat IV-PK CL
Source text: Institutional Animal Ethical Committee (IAEC) of Jubilant Biosys (IAEC/JDC/2019/188R (for Mice) and IAEC/JDC/2019/189R (for Rat) nominated by CPCSEA (Committee for the Purpose of Control and Supervision of Experiments on Animals) approved the mice and rat pharmacokinetic experiments. Male Balb/c mice (˜6-8 weeks old with body weight range of 22-25 g) and male SD rats (6-8 weeks old with body weight range of 200-250 g) were procured from Vivo Biotech, Hyderabad, India. Animals were quarantined in Jubilant Biosys Animal House for a period of 7 days with a 12:12 h light: dark cycles, and prior to the study the animals were stratified as per body weight.
B) Procedure for rat: Intravenous and oral pharmacokinetics study was done at a dose 2 and 10 mg/kg at dose volume of 2 and 10 mL/Kg. Serial blood sampling was done and at each time point (˜200 μL) were collected from retro-orbital plexus at 0.083 (Only for IV), 0.25, 0.5, 1, 2, 4, 8, 10 (only for PO) and 24 h. Blood samples were collected in tubes containing K2.EDTA as anticoagulant and centrifuged for 5 min at 10,000 rpm in a refrigerated centrifuge (Biofuge, Heraeus, Germany) maintained at 4° C. for plasma separation.
Group I (IV) received test compound intravenously by tail vein at 2 mg/Kg in solution formulation prepared using 30% Kolliphore EL in WFI; dose volume: 2 mL/Kg; strength: 1 mg/mL.
Blood concentration-time data of test compound was analyzed by non-compartmental method using Phoenix WinNonlin Version 8.1.

[5] = Equilibrium solubility at different pHs and with SBECD; type: physicochemical; details: thermodynamic from solid
[6] = CD-1, mouse, plasma, 4 h, 2 μM

IC50 (786-O) | Mouse Plasma Protein % Unbound (Ultracentrifuge method, 4 h at 37° C.) [1] | IC50 (SJSA-1) | IC50 (A431) | CD-1 Mouse Whole Blood Stability % Remaining ([2]; 0 min) | CD-1 Mouse Whole Blood Stability % Remaining ([2]; 30 min) | CD-1 Mouse Whole Blood Stability % Remaining ([2]; 60 min) | fraction unbound at 4 h [1] | solubility kinetic ([3]; Table B-4) | human blood stability % remaining (Human blood stability; 15 min) | human blood stability % remaining (Human blood stability; 30 min) | human blood stability % remaining (Human blood stability; 45 min) | human blood stability % remaining (Human blood stability; 60 min) | human blood stability % remaining (Human blood stability; 120 min) | clearance [4] | solubility ([5]; aqueous buffer, pH 3.0 PBS buffer, read-out: Eq. solubility pH 3.0 PBS buffer) | solubility ([5]; aqueous with cosolvent or surfactant or cyclodextrin, 20% SBECD (sulfobutyl ether cyclodextrin), read-out: Eq. solubility 20% SBECD) | solubility kinetic ([3]; Table B-7) | % Remaining (t = 4 hr at 37 C.) [6] | SMILES
0.034 µM | Not stable | 0.037 µM | > 10 µM | 100.0% | 18.0% | 3.9% | – | – | – | – | – | – | – | – | – | – | – | – | C#CC(=O)N1[C@@H](CCCC)Cc2c([nH]c3c(F)cc(F)cc23)[C@@H]1c1ccc(C2COC2)cc1 [Compound B-29]
0.177 µM | – | 0.08 µM | 7.5 µM | 100.0% | 44.7% | 26.7% | 0.061 | – | – | – | – | – | – | – | – | – | – | – | C#CC(=O)N1[C@@H](CCCC)Cc2c([nH]c3c(F)cc(F)cc23)[C@@H]1C1CCNCC1.Cl [Compound B-26]
0.005 µM | – | 0.005 µM | 2 µM | 100.0% | 78.0% | 72.7% | 0.078 | < 1 µM | 38%_15 | 4%_30 | 1%_45 | 0%_60 | 0%_120 | – | – | – | – | – | CCCC[C@H]1Cc2c([nH]c3c(F)cc(F)cc23)[C@H](c2ccc(N3CCN(C)CC3)c(C#N)c2)N1C(=O)CCl [Compound B-27]
0.009 µM | – | 0.018 µM | 4.7 µM | – | – | – | – | 4 µM (≈ 1.83 µg/mL) | 90%_15 | 55%_30 | 36%_45 | 22%_60 | 1.5%_120 | 348 mL/min/kg | – | – | – | – | C#CC(=O)N1[C@@H](CCCC)Cc2c([nH]c3ccccc23)[C@@H]1c1ccc(C(=O)NCCOC)cc1 [Compound B-3, 4-((1S,3S)-3-butyl-2-propioloyl-2,3,4,9-tetrahydro-1H-pyrido[3,4-b]indol-1-yl)-N-(2-methoxyethyl)benzamide]
0.041 µM | Not stable | 0.074 µM | 7.6 µM | 100.0% | 9.4% | 1.1% | – | – | – | – | – | – | – | – | < 1 µg/mL | > 1010 µg/mL | 11 µM (≈ 4.36 µg/mL) | – | C#CC(=O)N1[C@@H](CCCC)Cc2c([nH]c3c(F)cc(F)cc23)[C@@H]1c1ccnn1C [Compound B-34]
– | – | – | – | – | – | – | – | – | – | – | – | – | – | – | – | – | – | 101.2% | CC(=O)CC(c1ccccc1)c1c(O)c2ccccc2oc1=O (stereo not shown) [Warfarin, reference compound]
0.031 µM | – | 0.047 µM | 5.3 µM | 100.0% | 70.3% | 55.0% | 0.037 | – | – | – | – | – | – | – | – | – | – | – | C#CC(=O)N1[C@@H](CCCC)Cc2c([nH]c3c(F)cc(F)cc23)[C@@H]1C12CC(N)(C1)C2.Cl [Compound B-22]
